Test results as given in patent publication US20240216401A1, “COMBINATION THERAPY BY USING AKR1C3-ACTIVATED COMPOUND WITH IMMUNE CHECKPOINT INHIBITOR” (OBI Pharma, Inc., priority 2021, published 2024).
“And” between values parts separate entries of the source, which are not always exact repeats. Identical values can stand only once.

Legend:
Assay type in all cases: in vivo, Mus musculus
[1] = test system: T helper (TH) cells (CD45^+CD4^+ T cells) in tumor-infiltrating lymphocytes; test: Example 2: flow cytometry, percentage of TH cells in TILs; details: G3: OBI-3424 (1 mg/kg); individual animals; 1 mg/kg
Procedure: (§1) Mice were sacrificed by CO2 euthanasia at the end of the study duration, and the connective tissue around tumor was resected. The tumor samples were then weighed and cut equally into three sections if the tumor weight over 400 mg. The tumor tissue was prepared for the isolation of tumor-infiltrating lymphocytes (TILs). The rest of one section was fixed in 10% formaldehyde and embedded in paraffin; the other was stored at a temperature below −70° C.
(§2) The tumor samples were dissected into smaller fragments using scalpels and then digested with a cocktail of collagenase, DNase I, and Hyaluronidase (Collagenase #C5138, DNase I #D5025, Hyaluronidase #H6254, SigmaAldrich) for at least 2 hours.
(§3) Cells were stained with the fluorescently conjugated surface antibodies and incubated for 30 minutes at 4° C., and then resuspended in staining buffer for flow cytometric analysis. Flow cytometry was done using a Navios EX Flow Cytometer (Beckman Coulter). Data were analyzed using the Kaluza Analysis Software (Beckman Coulter).

[2] = test system: NK cells in tumor-infiltrating lymphocytes; test: Example 2: flow cytometry, percentage of NK cells in TILs; details: individual animals and Mean
Procedure: as §1, §2, §3

[3] = Example 2: body weight of HepG2 tumor bearing humanized mice; details: for Body Weight: individual animal; for Body Weight (g) Mean: group mean
Procedure: 1. Species: Mus musculus • Strain: Advanced immunodeficiency mouse. • (NOD.CgPrkdc^scid Il2rg) • Source: Trineo Biotechnology Co., LTD.
Each group contains six mice. The human hepatocellular carcinoma cell line HepG2 were subcutaneously inoculated to the advanced immune-deficiency mice. Total of 42 mice were included in this study.
3.1. […] The injection was performed using insulin syringe with the dosage of 0.3 mg/kg or 1 mg/kg and the injection volume was 5 mL/kg. […] The reference item was administered for G1. The procedure followed the standards of sample administration. The starting day of test item administration was denoted as the first experimental day (DO).
3.2. […] The injection was performed using insulin syringe with the dosage of 20 mg/kg and injection volume of 10 mL/kg. […] The procedure followed the standards of sample administration.
The measurement was performed from the next day of the inoculation. The animal body weights were measured and recorded twice per week.

[4] = G2: OBI-3424 (0.3 mg/kg), 0.3 mg/kg
[5] = G2: OBI-3424 (0.3 mg/kg), 0.3 mg/kg, mean
[6] = G3: OBI-3424 (1 mg/kg), 1 mg/kg
[7] = G3: OBI-3424 (1 mg/kg), 1 mg/kg, mean

C[C@H](OP(=O)(N1CC1)N1CC1)c1ccc([N+](=O)[O-])c(Oc2cccc(C(=O)N(C)C)c2)c1 [OBI-3424, (S)-1-(3-(3-N,N-dimethylaminocarbonyl)phenoxyl-4-mtrophenyl)-1-ethyl-N,N′-bis(ethylene)phosphoramidate]
Foxp3^+ Treg cells (CD45^+CD4^+CD25^+Foxp3^+) Total % [1]: 0.07% and 0.06% (2×) and 0.10% and 0.12% and 0.13%
PD-1^+ TH cells (CD45^+CD4^+ PD-1^+) Cell count (×10^5) [1]: 7.02 ×10^5 and 29.44 ×10^5 and 11.76 ×10^5 and 23.76 ×10^5 and 18.24 ×10^5 and 27.01 ×10^5
PD-1^+ TH cells (CD45^+CD4^+ PD-1^+) TH Gated % [1]: 96.86% and 94.38% and 95.57% and 98.57% and 97.07% and 99.62%
PD-1^+ TH cells (CD45^+CD4^+ PD-1^+) Total % [1]: 24.22% and 23.33% and 16.66% and 24.05% and 24.52% and 33.34%
TH cells (CD45^+CD4^+) CD45^+ Gated % [1]: 37.76% and 41.33% and 35.50% and 40.55% and 38.34% and 57.62%
TH cells (CD45^+CD4^+) Cell count (×10^5) [1]: 7.25 ×10^5 and 31.20 ×10^5 and 12.31 ×10^5 and 24.11 ×10^5 and 18.79 ×10^5 and 27.11 ×10^5
TH cells (CD45^+CD4^+) Total % [1]: 25.00% and 24.72% and 17.44% and 24.40% and 25.26% and 33.47%
NK cells (CD45^+CD56^+) CD45^+ Gated % [2, 4]: 6.33% and 8.78% and 8.87% and 10.05% and 2.25% and 6.70%
NK cells (CD45^+CD56^+) Cell count [2, 4]: 2.30 ×10^5 and 6.67 ×10^5 and 20.68 ×10^5 and 1.46 ×10^5 and 2.47 ×10^5 and 1.84 ×10^5
NK cells (CD45^+CD56^+) Total % [2, 4]: 1.18% and 3.26% and 3.83% and 6.83% and 1.00% and 2.54%
PD-1^+ NK cells (CD45^+CD56^+PD-1^+) Cell count [2, 4]: 1.65 ×10^5 and 2.21 ×10^5 and 10.85 ×10^5 and 0.31 ×10^5 and 2.17 ×10^5 and 0.83 ×10^5
PD-1^+ NK cells (CD45^+CD56^+PD-1^+) NK Gated % [2, 4]: 71.96% and 33.17% and 52.46% and 21.08% and 87.65% and 44.79%
PD-1^+ NK cells (CD45^+CD56^+PD-1^+) Total % [2, 4]: 0.85% and 1.08% and 2.01% and 1.44% and 0.88% and 1.14%
NK cells (CD45^+CD56^+) CD45^+ Gated % [2, 5]: 7.16%
NK cells (CD45^+CD56^+) Cell count [2, 5]: 5.90 ×10^5
NK cells (CD45^+CD56^+) Total % [2, 5]: 3.11%
PD-1^+ NK cells (CD45^+CD56^+PD-1^+) Cell count [2, 5]: 3.00 ×10^5
PD-1^+ NK cells (CD45^+CD56^+PD-1^+) NK Gated % [2, 5]: 51.85%
PD-1^+ NK cells (CD45^+CD56^+PD-1^+) Total % [2, 5]: 1.23%
NK cells (CD45^+CD56^+) CD45^+ Gated % [2, 6]: 3.99% (2×) and 5.65% and 6.00% and 4.05% and 4.24%
NK cells (CD45^+CD56^+) Cell count [2, 6]: 0.77 ×10^5 and 4.27 ×10^5 and 2.08 ×10^5 and 2.41 ×10^5 and 1.96 ×10^5 and 1.99 ×10^5
NK cells (CD45^+CD56^+) Total % [2, 6]: 2.64% and 3.38% and 2.95% and 2.44% and 2.63% and 2.46%
PD-1^+ NK cells (CD45^+CD56^+PD-1^+) Cell count [2, 6]: 0.26 ×10^5 and 1.64 ×10^5 and 1.02 ×10^5 and 1.77 ×10^5 (2×) and 1.04 ×10^5
PD-1^+ NK cells (CD45^+CD56^+PD-1^+) NK Gated % [2, 6]: 34.34% and 38.34% and 48.85% and 73.40% and 53.12% and 88.62%
PD-1^+ NK cells (CD45^+CD56^+PD-1^+) Total % [2, 6]: 0.91% and 1.30% and 1.44% and 1.79% and 1.40% and 2.18%
NK cells (CD45^+CD56^+) CD45^+ Gated % [2, 7]: 4.65%
NK cells (CD45^+CD56^+) Cell count [2, 7]: 2.25 ×10^5
NK cells (CD45^+CD56^+) Total % [2, 7]: 2.75%
PD-1^+ NK cells (CD45^+CD56^+PD-1^+) Cell count [2, 7]: 1.25 ×10^5
PD-1^+ NK cells (CD45^+CD56^+PD-1^+) NK Gated % [2, 7]: 56.11%
PD-1^+ NK cells (CD45^+CD56^+PD-1^+) Total % [2, 7]: 1.50%
body weight (in words) ([3]; Example 2, until Day 30): Body weight loss was not seen
Body Weight ([3]; G2: OBI-3424 0.3 mg/kg, D2 after test item administration, 0.3 mg/kg): 22.12 g
Body Weight ([3]; G2: OBI-3424 0.3 mg/kg, D6 after test item administration, 0.3 mg/kg): 24.82 g
Body Weight ([3]; G2: OBI-3424 0.3 mg/kg, D9 after test item administration, 0.3 mg/kg): 20.84 g and 24.58 g
Body Weight ([3]; G2: OBI-3424 0.3 mg/kg, D13 after test item administration, 0.3 mg/kg): 23.96 g and 24.87 g
Body Weight ([3]; G2: OBI-3424 0.3 mg/kg, D16 after test item administration, 0.3 mg/kg): 24.02 g and 24.56 g and 24.17 g
Body Weight ([3]; G2: OBI-3424 0.3 mg/kg, D20 after test item administration, 0.3 mg/kg): 22.00 g and 24.21 g and 23.98 g
Body Weight ([3]; G2: OBI-3424 0.3 mg/kg, D23 after test item administration, 0.3 mg/kg): 23.98 g
Body Weight (g) Mean ([3]; G2: OBI-3424 0.3 mg/kg, D30 after test item administration): 22.06 g
Body Weight ([3]; G2: OBI-3424 0.3 mg/kg, D30 after test item administration, 0.3 mg/kg): 20.17 g and 21.65 g
Body Weight ([3]; G2: OBI-3424 0.3 mg/kg, L0 after tumor cell injection, 0.3 mg/kg): 20.66 g and 23.04 g and 25.00 g
Body Weight ([3]; G2: OBI-3424 0.3 mg/kg, L1 after tumor cell injection, 0.3 mg/kg): 23.02 g
Body Weight (g) Mean ([3]; G2: OBI-3424 0.3 mg/kg, L3 after tumor cell injection): 22.99 g
Body Weight ([3]; G2: OBI-3424 0.3 mg/kg, L7 after tumor cell injection, 0.3 mg/kg): 23.01 g
Body Weight ([3]; G3: OBI-3424 1 mg/kg, D2 after test item administration, 1 mg/kg): 20.20 g and 24.22 g
Body Weight ([3]; G3: OBI-3424 1 mg/kg, D6 after test item administration, 1 mg/kg): 24.90 g
Body Weight ([3]; G3: OBI-3424 1 mg/kg, D9 after test item administration, 1 mg/kg): 22.01 g and 24.85 g
Body Weight ([3]; G3: OBI-3424 1 mg/kg, D13 after test item administration, 1 mg/kg): 25.97 g
Body Weight ([3]; G3: OBI-3424 1 mg/kg, D20 after test item administration, 1 mg/kg): 24.21 g and 25.53 g and 21.98 g
Body Weight (g) Mean ([3]; G3: OBI-3424 1 mg/kg, D23 after test item administration): 24.04 g
Body Weight ([3]; G3: OBI-3424 1 mg/kg, D23 after test item administration, 1 mg/kg): 23.02 g and 25.37 g
Body Weight ([3]; G3: OBI-3424 1 mg/kg, D30 after test item administration, 1 mg/kg): 22.02 g
Body Weight ([3]; G3: OBI-3424 1 mg/kg, L0 after tumor cell injection, 1 mg/kg): 19.46 g
Body Weight ([3]; G3: OBI-3424 1 mg/kg, L3 after tumor cell injection, 1 mg/kg): 20.70 g and 24.21 g and 20.80 g and 24.01 g
Body Weight ([3]; G3: OBI-3424 1 mg/kg, L7 after tumor cell injection, 1 mg/kg): 24.22 g and 25.55 g
